Source: ChEMBL document CHEMBL4177614, “Development of a microarray-based assay for efficient testing of new HSP70/DnaK inhibitors” (Bioorg Med Chem, 2017)
The source made the active and inactive calls. The calls are words filed in the database; no cut-off is given here.

What was measured:
[1] = Displacement of Cy5-labelled (position-4) ATP from human HSP70 expressed in Escherichia coli BL21(DE3) after 16 hrs by microarray assay
Homo sapiens = species on record: Homo sapiens; assay: Binding affinity to human HSP70 expressed in Escherichia coli BL21(DE3) at 100 uM after 16 hrs microarray assay
[2] = Displacement of Cy5-labelled (position-4) ATP from Mycobacterium tuberculosis HSP70 expressed in Escherichia coli BL21(DE3) after 16 hrs by microarray assay

SMILES	EC50 [1] [µM]	Kd [2] [µM]	Kd [1] [µM]	further results
COc1ccc(-c2c(OC)c(O)c(-c3ccc(O)cc3)c(O)c2OC)cc1	29			
CC[N+]1=C(/C=C/C=C/C=C2/N(CCCCCC(=O)NCCCCCCNP(=O)(O)OP(=O)(O)OP(=O)(O)OC[C@H]3O[C@@H](n4cnc5c(N)ncnc54)[C@H](O)[C@@H]3O)c3ccc(S(=O)(=O)O)cc3C2(C)C)C(C)(C)c2cc(S(=O)(=O)[O-])ccc21				Activity (Homo sapiens): inactive
CC[N+]1=C(/C=C/C=C/C=C2/N(CCCCCC(=O)NCCCCCCNc3ncnc4c3ncn4[C@@H]3O[C@H](COP(=O)(O)OP(=O)(O)OP(=O)(O)O)[C@@H](O)[C@H]3O)c3ccc(S(=O)(=O)O)cc3C2(C)C)C(C)(C)c2cc(S(=O)(=O)[O-])ccc21	0.484	30.6		
CC[N+]1=C(/C=C/C=C/C=C2/N(CCCCCC(=O)NCCCCCCNc3nc4c(N)ncnc4n3[C@@H]3O[C@H](COP(=O)(O)OP(=O)(O)OP(=O)(O)O)[C@@H](O)[C@H]3O)c3ccc(S(=O)(=O)O)cc3C2(C)C)C(C)(C)c2cc(S(=O)(=O)[O-])ccc21			2.3	
Nc1ncnc2c1ncn2[C@@H]1O[C@H](COP(=O)(O)OP(=O)(O)OP(=O)(O)O)[C@@H](O)[C@H]1O [ADENOSINE TRIPHOSPHATE]	0.001	0.037	0.037	EC50 [2]: 0.001 µM
COc1ccc(-c2c(O)c(O)c(-c3ccc(OC)cc3)c(OC)c2OC)cc1	49			
